{
  "source": "ChEMBL document CHEMBL6182926",
  "about": "“Design, Synthesis, and Biological Activity Evaluation of Deuterated Diphenyl Azole Alcohol-Based CYP51 Inhibitors” (J Med Chem, 2025)",
  "key": {"Candida albicans [1]": {"tested_on": "Candida albicans", "assay": "Antifungal activity against Candida albicans SC 5314 assessed as inhibition of visible growth", "format": "functional"}, "Candida tropicalis": {"tested_on": "Candida tropicalis", "assay": "Antifungal activity against Candida tropicalis CGMCC 2.3739 assessed as inhibition of visible growth", "format": "functional"}, "Candida parapsilosis": {"tested_on": "Candida parapsilosis", "assay": "Antifungal activity against Candida parapsilosis GIM 2.190 assessed as inhibition of visible growth", "format": "functional", "conditions": "Lodderomyces parapsilosis"}, "Pichia kudriavzevii [2]": {"tested_on": "Pichia kudriavzevii", "assay": "Antifungal activity against Candida krusei AS 2.1045 assessed as inhibition of visible growth", "format": "functional"}, "Aspergillus fumigatus": {"tested_on": "Aspergillus fumigatus", "assay": "Antifungal activity against Aspergillus fumigatus CGMCC 3.7795 assessed as inhibition of visible growth", "format": "functional"}, "Cytochrome P450 1A2": {"molecular_target": "T1, Cytochrome P450 1A2 (Homo sapiens, UniProt P05177)", "T1 sequence (P05177 whole entry)": "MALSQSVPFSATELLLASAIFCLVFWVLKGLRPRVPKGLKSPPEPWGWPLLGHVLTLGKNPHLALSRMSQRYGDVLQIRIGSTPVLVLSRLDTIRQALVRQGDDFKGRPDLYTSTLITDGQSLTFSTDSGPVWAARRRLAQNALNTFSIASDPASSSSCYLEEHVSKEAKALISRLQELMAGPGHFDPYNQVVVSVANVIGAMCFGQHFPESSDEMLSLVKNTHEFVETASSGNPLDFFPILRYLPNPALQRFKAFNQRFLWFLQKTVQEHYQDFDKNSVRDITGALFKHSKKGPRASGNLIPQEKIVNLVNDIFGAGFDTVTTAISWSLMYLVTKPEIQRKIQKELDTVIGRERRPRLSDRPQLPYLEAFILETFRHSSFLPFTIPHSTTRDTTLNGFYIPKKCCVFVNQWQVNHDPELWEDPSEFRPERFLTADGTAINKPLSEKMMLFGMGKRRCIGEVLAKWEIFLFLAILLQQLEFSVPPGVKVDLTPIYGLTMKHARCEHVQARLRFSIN", "assay": "Inhibition of CYP1A2 in human liver microsomes using phenacetin as substrate measured after 10 mins by LC/MS/MS analysis", "format": "ADME, Microsome"}, "Cytochrome P450 2C9": {"molecular_target": "Cytochrome P450 2C9 (Homo sapiens, UniProt P11712)", "sequence (P11712 whole entry)": "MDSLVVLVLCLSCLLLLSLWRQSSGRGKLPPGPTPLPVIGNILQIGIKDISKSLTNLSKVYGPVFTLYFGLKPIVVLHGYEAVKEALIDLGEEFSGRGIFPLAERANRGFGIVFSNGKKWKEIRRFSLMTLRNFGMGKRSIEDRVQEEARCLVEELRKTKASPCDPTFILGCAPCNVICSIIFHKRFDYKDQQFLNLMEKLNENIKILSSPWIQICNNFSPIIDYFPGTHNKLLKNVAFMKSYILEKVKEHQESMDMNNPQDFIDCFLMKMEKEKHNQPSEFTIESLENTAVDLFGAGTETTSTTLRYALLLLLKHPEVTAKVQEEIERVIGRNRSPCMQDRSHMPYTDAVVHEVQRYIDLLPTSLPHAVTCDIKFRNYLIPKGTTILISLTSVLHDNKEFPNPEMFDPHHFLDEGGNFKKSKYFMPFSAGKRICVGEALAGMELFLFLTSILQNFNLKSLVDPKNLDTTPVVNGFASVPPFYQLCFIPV", "assay": "Inhibition of CYP2C9 in human liver microsomes using diclofenac as substrate measured after 10 mins by LC/MS/MS analysis", "format": "ADME, Microsome"}, "Cytochrome P450 2C19": {"molecular_target": "Cytochrome P450 2C19 (Homo sapiens, UniProt P33261)", "sequence (P33261 whole entry)": "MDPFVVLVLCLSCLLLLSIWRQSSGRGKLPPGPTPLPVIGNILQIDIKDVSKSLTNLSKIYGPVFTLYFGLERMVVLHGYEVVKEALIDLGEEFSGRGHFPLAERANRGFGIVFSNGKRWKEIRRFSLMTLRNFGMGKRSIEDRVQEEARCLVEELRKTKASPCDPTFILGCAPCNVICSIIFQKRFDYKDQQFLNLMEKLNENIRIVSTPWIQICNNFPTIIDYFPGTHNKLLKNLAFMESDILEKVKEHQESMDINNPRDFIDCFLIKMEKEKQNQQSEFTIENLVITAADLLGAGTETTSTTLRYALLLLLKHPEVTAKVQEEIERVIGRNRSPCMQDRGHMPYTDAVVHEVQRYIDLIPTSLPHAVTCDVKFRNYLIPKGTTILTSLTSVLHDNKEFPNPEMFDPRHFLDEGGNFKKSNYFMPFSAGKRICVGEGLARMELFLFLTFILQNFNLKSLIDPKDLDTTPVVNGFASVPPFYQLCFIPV", "assay": "Inhibition of CYP2C19 in human liver microsomes using S-mephenytoin as substrate measured after 10 mins by LC/MS/MS analysis", "format": "ADME, Microsome"}, "[3]": {"assay": "Cytotoxicity against human SH-SY5Y cells measured after 72 hrs by MTT assay", "format": "toxicity, cell-based"}, "[4]": {"assay": "Selectivity ratio, ratio of IC50 for cytotoxicity against human SH-SY5Y cells to MIC80 for antifungal activity against Candida albicans SC 5314", "format": "toxicity, cell-based"}, "Pichia kudriavzevii [5]": {"tested_on": "Pichia kudriavzevii", "assay": "Fungicidal activity against Candida krusei AS 2.1045 assessed as concentration of colonies (< 5) measured after 48 hrs incubation", "format": "functional"}, "Pichia kudriavzevii [6]": {"tested_on": "Pichia kudriavzevii", "assay": "Fungicidal index, ratio of MFC for fungicidal activity against Candida krusei AS 2.1045 to MIC80 for antifungal activity against Candida krusei AS 2.1045", "format": "functional"}, "Nakaseomyces glabratus": {"tested_on": "Nakaseomyces glabratus", "assay": "Fungicidal index, ratio of MFC for fungicidal activity against Clinical isolate Candida glabrata to MIC80 for antifungal activity against Clinical isolate Candida glabrata", "format": "functional"}, "Candida albicans [7]": {"tested_on": "Candida albicans", "assay": "Antifungal activity against Candida albicans SC5314 assessed as reduction in ergosterol at 0.05 ug/ml measured after 18 hrs incubation by gas chromatography-mass spectrometry (GCMS) analysis (reference value: 96.72%)", "format": "functional", "design": "scale not given: the % may be the effect or the level left", "conditions": "dose 0.05 µg/ml"}, "Candida albicans [8]": {"tested_on": "Candida albicans", "assay": "Antifungal activity against Candida albicans SC5314 assessed as reduction in 14alpha-methylsterols at 0.05 ug/ml measured after 18 hrs incubation by gas chromatography-mass spectrometry (GCMS) analysis (reference value: 0.69%)", "format": "functional", "design": "scale not given: the % may be the effect or the level left", "conditions": "dose 0.05 µg/ml"}, "Candida albicans [9]": {"tested_on": "Candida albicans", "assay": "Antifungal activity against Candida albicans SC5314 assessed as reduction in Obtusifoliol at 0.05 ug/ml measured after 18 hrs incubation by gas chromatography-mass spectrometry (GCMS) analysis", "format": "functional", "design": "scale not given: the % may be the effect or the level left", "conditions": "dose 0.05 µg/ml"}, "Candida albicans [10]": {"tested_on": "Candida albicans", "assay": "Antifungal activity against Candida albicans SC5314 assessed as reduction in Lanosterol at 0.05 ug/ml measured after 18 hrs incubation by gas chromatography-mass spectrometry (GCMS) analysis", "format": "functional", "design": "scale not given: the % may be the effect or the level left", "conditions": "dose 0.05 µg/ml"}, "Cryptococcus neoformans [11]": {"tested_on": "Cryptococcus neoformans", "assay": "Antifungal activity against Cryptococcus neoformans CGMCC 2.3161 assessed as reduction in ergosterol at 0.0125 ug/ml measured after 18 hrs incubation by gas chromatography-mass spectrometry (GCMS) analysis (reference value: 94.48%)", "format": "functional", "design": "scale not given: the % may be the effect or the level left", "conditions": "dose 0.0125 µg/ml"}, "Cryptococcus neoformans [12]": {"tested_on": "Cryptococcus neoformans", "assay": "Antifungal activity against Cryptococcus neoformans CGMCC 2.3161 assessed as reduction in 14alpha-methylsterols at 0.0125 ug/ml measured after 18 hrs incubation by gas chromatography-mass spectrometry (GCMS) analysis (reference value: 2.32%)", "format": "functional", "design": "scale not given: the % may be the effect or the level left", "conditions": "dose 0.0125 µg/ml"}, "Cryptococcus neoformans [13]": {"tested_on": "Cryptococcus neoformans", "assay": "Antifungal activity against Cryptococcus neoformans CGMCC 2.3161 assessed as reduction in Obtusifoliol at 0.0125 ug/ml measured after 18 hrs incubation by gas chromatography-mass spectrometry (GCMS) analysis", "format": "functional", "design": "scale not given: the % may be the effect or the level left", "conditions": "dose 0.0125 µg/ml"}, "Cryptococcus neoformans [14]": {"tested_on": "Cryptococcus neoformans", "assay": "Antifungal activity against Cryptococcus neoformans CGMCC 2.3161 assessed as reduction in Lanosterol at 0.0125 ug/ml measured after 18 hrs incubation by gas chromatography-mass spectrometry (GCMS) analysis", "format": "functional", "design": "scale not given: the % may be the effect or the level left", "conditions": "dose 0.0125 µg/ml"}, "Cryptococcus neoformans [15]": {"tested_on": "Cryptococcus neoformans", "assay": "Antifungal activity against Cryptococcus neoformans CGMCC 2.3161 assessed as reduction in 14alpha-methylsterols at 0.125 ug/ml measured after 18 hrs incubation by gas chromatography-mass spectrometry (GCMS) analysis (reference value: 2.32%)", "format": "functional", "design": "scale not given: the % may be the effect or the level left", "conditions": "dose 0.125 µg/ml"}, "Cryptococcus neoformans [16]": {"tested_on": "Cryptococcus neoformans", "assay": "Antifungal activity against Cryptococcus neoformans CGMCC 2.3161 assessed as reduction in Eburicol at 0.125 ug/ml measured after 18 hrs incubation by gas chromatography-mass spectrometry (GCMS) analysis", "format": "functional", "design": "scale not given: the % may be the effect or the level left", "conditions": "dose 0.125 µg/ml"}, "[17]": {"assay": "Oral bioavailability in Sprague-Dawley rat at 10 mg/kg by LC-MS/MS analysis", "format": "ADME, organism-based", "conditions": "in vivo"}, "[18]": {"assay": "Tmax in Sprague-Dawley rat at 3 mg/kg, iv by LC-MS/MS analysis", "format": "ADME, organism-based", "conditions": "in vivo"}, "[19]": {"assay": "AUC (0 to infinity) in Sprague-Dawley rat at 3 mg/kg, iv by LC-MS/MS analysis", "format": "ADME, organism-based", "conditions": "in vivo"}, "[20]": {"assay": "Toxicity in ICR mouse assessed as structural alteration in liver at 500 mg/kg, po single dose measured for 7 days by hematoxylin-eosin (H/E) staining analysis", "format": "organism-based", "conditions": "in vivo, 168 h, time 7 day"}, "[21]": {"assay": "Toxicity in ICR mouse assessed as structural alteration in kidney at 500 mg/kg, po single dose measured for 7 days by hematoxylin-eosin (H/E) staining analysis", "format": "organism-based", "conditions": "in vivo, 168 h, time 7 day"}, "[22]": {"assay": "Subacute toxicity in ICR mouse assessed as structural alteration in kidney at 100 mg/kg, oral gavage for 14 consecutive days by hematoxylin-eosin (H/E) staining analysis", "format": "organism-based", "conditions": "in vivo, 336 h, time 14 day"}, "Mus musculus": {"tested_on": "Mus musculus", "assay": "In vivo antifungal activity against Candida albicans SC5314 infected in ICR mouse model assessed as mouse survival at 5 mg/kg, oral gavage measured for 21 days post infection", "format": "functional", "conditions": "504 h, time 21 day"}},
  "note": "pIC50: −log10 of the molar value.",
  "data": [
    {"smiles": "[2H]C([2H])([2H])N(Cc1ccc(-c2ccc(OC(F)(F)F)cc2)cc1)[C@H](C)[C@](O)(Cn1cncn1)c1ccc(F)cc1F", "values": [
      {"measurement": "MIC80", "setting": "Candida albicans [1]", "result": 6, "unit": "ng/mL"},
      {"measurement": "MIC80", "setting": "Candida tropicalis", "result": 6, "unit": "ng/mL"},
      {"measurement": "MIC80", "setting": "Candida parapsilosis", "result": 6, "unit": "ng/mL"},
      {"measurement": "MIC80", "setting": "Pichia kudriavzevii [2]", "result": 12, "unit": "ng/mL"},
      {"measurement": "MIC80", "setting": "Aspergillus fumigatus", "result": 25, "unit": "ng/mL"},
      {"measurement": "pIC50", "setting": "Cytochrome P450 1A2", "result": "< 5.00"},
      {"measurement": "pIC50", "setting": "Cytochrome P450 2C9", "result": 5.75},
      {"measurement": "pIC50", "setting": "Cytochrome P450 2C19", "result": 5.77},
      {"measurement": "IC50 at 72 h", "setting": "[3]", "result": 25200, "unit": "nM"},
      {"measurement": "selectivity ratio", "setting": "[4]", "result": "> 100"},
      {"measurement": "MFC", "setting": "Pichia kudriavzevii [5]", "result": 125, "unit": "ng/mL"},
      {"measurement": "Activity_index", "setting": "Pichia kudriavzevii [6]", "result": 10},
      {"measurement": "Activity_index", "setting": "Nakaseomyces glabratus", "result": 40},
      {"measurement": "Activity", "setting": "Candida albicans [7]", "result": 3.68, "unit": "%"},
      {"measurement": "Activity", "setting": "Candida albicans [8]", "result": 7.73, "unit": "%"},
      {"measurement": "Activity", "setting": "Candida albicans [9]", "result": 18, "unit": "%"},
      {"measurement": "Activity", "setting": "Candida albicans [10]", "result": 21.92, "unit": "%"},
      {"measurement": "Activity", "setting": "Cryptococcus neoformans [11]", "result": 62.56, "unit": "%"},
      {"measurement": "Activity", "setting": "Cryptococcus neoformans [12]", "result": 3.13, "unit": "%"},
      {"measurement": "Activity", "setting": "Cryptococcus neoformans [13]", "result": 5.76, "unit": "%"},
      {"measurement": "Activity", "setting": "Cryptococcus neoformans [14]", "result": 8.58, "unit": "%"},
      {"measurement": "Activity", "setting": "Cryptococcus neoformans [15]", "result": 3.21, "unit": "%"},
      {"measurement": "Activity", "setting": "Cryptococcus neoformans [16]", "result": 47.42, "unit": "%"},
      {"measurement": "bioavailability", "setting": "[17]", "result": 63.4, "unit": "%"},
      {"measurement": "Tmax", "setting": "[18]", "result": 4.98, "unit": "min"},
      {"measurement": "AUC", "setting": "[19]", "result": 2286, "unit": "ng·h/mL"},
      {"measurement": "Activity", "setting": "[20]", "result": "Non-toxic"},
      {"measurement": "Activity", "setting": "[21]", "result": "Non-toxic"},
      {"measurement": "Activity", "setting": "[22]", "result": "Non-toxic"},
      {"measurement": "survival at 5 mg/kg", "setting": "Mus musculus", "result": 100, "unit": "%"}
    ]}
  ]
}
